Laboratory results taken from PMC10733463, “Berberine-microbiota interplay: orchestrating gut health through modulation of the gut microbiota and metabolic transformation into bioactive metabolites” (Frontiers in Pharmacology, 2023).

Key:
[1] = test system: B. coccoides (DSM 935); conditions: DSM 935, chicken, 10 µg/mL, pH 6
Protocol: (§1) Six strains were tested for their ability to convert berberine into berberine-demethylated metabolites. […] Strains were sub-cultured overnight in M2GSC medium pH 6. The next day, caecal content from a 3-week-old broiler chicken was sampled in anaerobic conditions and 1:1,000 diluted in M2GSC medium pH 6 containing 10 μg/mL berberine. Caecal mixtures were enriched with 1:100 diluted overnight cultures of single bacteria, or with M2GSC (control), and incubated in a 24-well plate, for 48 h. […] Samples were collected and processed as described before. Each bacterial strain was tested in triplicate at 37°C–40°C under anaerobic conditions.
(§2) The UPLC instrument consisted of an Acquity H-Class Quaternary Solvent Manager and an Acquity FTN Sample Manager (Waters, Berchem, Belgium). For chromatographic separation, an Acquity UPLC® HSS T3 column (1.8 µm, 100 mm × 2.1 mm i.d.) was used, protected by a precolumn of the same type (VanGuardTM, 5 mm × 2.1 mm i.d.), both from Waters. […] The column temperature was maintained at 25°C. The autosampler temperature was set at 10°C. The UPLC effluent was sent from 1.2 min to 9.5 min by use of a divert valve to a Xevo TQ-S® triple quadrupole mass spectrometer from Water, equipped with an ESI ion source operating in the positive ionization mode from. The UPLC-MS/MS analysis was run under control of MassLynx software (v4.1), which was used for subsequent data processing as well. For the injection of 1/5 diluted intestinal content samples (see section Preparation of intestinal content samples (ileum and caecum)), the divert valve was used in addition from 7.1 min to 8.4 min to deviate the high amount of berberine and associated IS berberine-d6 eluting in that time window from the UPLC column directly to the waste, rather than to the MS detector to avoid oversaturation of the instrument, influencing subsequent sample extract injections at well. Operating conditions for the ESI source used in the positive ionization mode were optimized by direct infusion of all individual components in combination with the mobile phase at 50% A/50% B delivered at a flow rate of 0.3 mL/min. The following tune parameters were used for detection of all components: capillary voltage, 3 kV, cone voltage, 10 V, source offset, 50 V, source temperature, 150°C, desolvation temperature, 500°C, desolvation gas flow, 800 L/h, cone gas flow, 150 L/h, collision gas flow, 0.2 mL/min, ion energy 1 and 2, 0.5, LM 1 and LM 2 resolution, 3, HM 1 and HM 2 resolution, 15. Components were detected in MS/MS mode using component specific MRM (Multiple Reaction Monitoring) transitions (Supplementary Table S1). Since a commercial standard of thalifendine was not available, MS/MS detection parameters and calibration of berberrubine were used for the detection and quantification of thalifendine, which is a reasonable approach, since both compounds are isomers. No commercial reference standards were available for phase II metabolites, therefore “calculated” MRM transitions were defined as follows: [M + -Gluc] > M+ for glucuronide forms and [M + -SO3] > M+ for sulfate forms, where the loss of glucuronic acid or sulfate corresponded to a mass shift of 176 Da or 80 Da respectively. Phase II metabolites were quantified relatively using the berberine calibration curve ([Wang et al., 2017a]; [Kwon et al., 2020]).

[2] = test system: Blautia hydrogenotrophica (DSM 10507); conditions: DSM 10507, chicken, 10 µg/mL, pH 6
Protocol: as §1, §2

[3] = test system: Blautia hansenii (DSM 20583); conditions: DSM 20583, chicken, 10 µg/mL, pH 6
Protocol: as §1, §2

[4] = test system: Blautia luti (DSM 14534); conditions: DSM 14534, chicken, 10 µg/mL, pH 6
Protocol: as §1, §2

[5] = test system: Anaerostipes butyraticus (35–7); conditions: 35-7, chicken, 10 µg/mL, pH 6
Protocol: as §1, §2

[6] = test system: Eubacterium limosum (LMG 28910); conditions: LMG 28910, chicken, 10 µg/mL, pH 6
Protocol: as §1, §2

Row | SMILES | Log2(fold change) of metabolite response at 48 h, culture with bacteria over control (berberine-medium + microbiota) [1] | Log2(fold change) of metabolite response at 48 h, culture with bacteria over control (berberine-medium + microbiota) [2] | Log2(fold change) of metabolite response at 48 h, culture with bacteria over control (berberine-medium + microbiota) [3] | Log2(fold change) of metabolite response at 48 h, culture with bacteria over control (berberine-medium + microbiota) [4] | Log2(fold change) of metabolite response at 48 h, culture with bacteria over control (berberine-medium + microbiota) [5] | Log2(fold change) of metabolite response at 48 h, culture with bacteria over control (berberine-medium + microbiota) [6]
1 | COc1ccc2cc3[n+](cc2c1O)CCc1cc2c(cc1-3)OCO2 [Berberrubine, berberrubine chloride] | -1.64 | -0.10 | -0.15 | -1.71 | 0.03 | -0.40
2 | COc1cc2c(cc1O)CC[n+]1cc3c(OC)c(OC)ccc3cc1-2 [Jatrorrhizine, Jatrorrhizine chloride] | -0.23 | 0.03 | -0.06 | -0.36 | -0.05 | 0.11
